From article PMC12368495, “Pharmacokinetic/pharmacodynamic parameters of teicoplanin for predicting clinical outcome of glycopeptide-susceptible Enterococcus faecium bacteraemia” (JAC-Antimicrobial Resistance, 2025)

Legend:
[1] = in vivo; cited from earlier work
Experimental: (§1) The estimation of fAUC24 involved a multi-step process. First, the total drug AUC over a 24-h interval during the maintenance phase (AUC24) was calculated for each patient. This was based on individual total clearance (CLtotal) estimated from the observed Cmin through Bayesian analysis. This analysis employed a previously developed population PK (PopPK) model for Japanese patients constructed by Nakayama et al.[23] This PopPK model was based on data from 120 Japanese adult inpatients with MRSA infections and incorporates creatinine clearance and body weight as covariates, making it applicable ...

GSEF bacteraemia [2] = test: Clinical outcomes of teicoplanin-treated GSEF bacteraemia (retrospective cohort); format: in vivo, human; conditions: for Treatment failure: 30-day all-cause mortality or microbiological failure
Experimental: We conducted a retrospective, single-centre, observational cohort study at The University of Tokyo Hospital between 1 April 2009 and 30 May 2023. The University of Tokyo’s ethics review board approved the study protocol (approval no. 2023138NI) and waived the requirement for written informed consent. The study was conducted in accordance with the ethical standards of the 1964 Declaration of Helsinki and its subsequent amendments. Patients with at least one GSEF-positive blood culture who received teicoplanin during the study period were deemed eligible. The exclusion criteria were as follows: lack of storage of microbiological samples, lack of teicoplanin trough concentration (Cmin), age under 18 years, renal replacement therapy or initiation of teicoplanin treatment more than 72 h after infection. GSEF bacteraemia was defined as one or more blood cultures positive for E. faecium resistant to ampicillin, and susceptible to teicoplanin and vancomycin, accompanied by signs or symptoms of infection consistent with suspected infection sites, as established in previous studies.[9],[15],[16] Polymicrobial infections were included in the analysis. For patients with a history of multiple treatments for GSEF bacteraemia, only the first treatment was considered.
The primary outcome, treatment failure, was defined as a composite of (i) 30-day all-cause mortality or (ii) microbiological failure, defined as persistent bacteraemia (a positive follow-up blood culture obtained >72 h after initiation of appropriate therapy) in patients with at least one follow-up blood culture).[28],[29] In patients without follow-up blood cultures, microbiological failure was not assessed, and treatment failure was determined solely based on 30-day all-cause mortality. […] Secondary outcomes included 90-day all-cause mortality (death within 90 days of the first positive GSEF blood culture), in-hospital mortality (death occurring during hospitalization), relapse (recurrence of GSEF bacteraemia after negative blood cultures following GSEF treatment) and readmission within 90 days of the first positive GSEF blood culture. Relapse was defined as recurrence of GSEF bacteraemia after documented microbiological clearance, confirmed by at least one negative follow-up blood culture. All clinical outcomes and PK parameter estimation (including AUC calculation) were conducted by an infectious disease pharmacist with access to treatment details and patient clinical courses. MIC measurements were performed independently by separate investigators and were integrated only after clinical outcome evaluation was completed. Safety outcomes included (i) incidence of AKI, diagnosed according to the KDIGO criteria (defined as 1.5× increase in sCr from baseline within 7 days or ≥0.3 mg/dL increase within 48 h of baseline following teicoplanin initiation)[30]; (ii) incidence of liver injury, defined as AST ≥ 90 U/L or ALT ≥ 126 U/L (≥3 times the upper limit during teicoplanin treatment)[31]; and (iii) other adverse events associated with teicoplanin use for GSEF bacteraemia.[15]
Continuous variables, expressed as medians with IQRs, were compared between the treatment success and treatment failure groups using the Mann–Whitney U-test. Categorical variables were compared between the two groups using the χ² test or Fisher’s exact test, as appropriate. To identify predictors of treatment failure, several steps were taken for the logistic regression analysis. First, classification and regression tree (CART) analysis was used to identify the optimal cut-off value for the fAUC24/MICEtest associated with treatment failure, according to the previous vancomycin PK/PD study.[32] This created a dichotomous variable for the PK/PD parameter. Next, a multivariable logistic regression model was constructed to assess the independent effect of the fAUC24/MICEtest on treatment failure. […]

GSEF bacteraemia [3] = conditions: cited from earlier work
[4] = Teicoplanin trough concentration and Bayesian estimation of AUC24/fAUC24 in patients; format: in vivo, human
Experimental: The primary PK/PD parameter for this study was the ratio of the estimated 24-h free-drug area under the curve to the MIC (fAUC24/MICEtest). The estimation of fAUC24 was based on total Cmin measured during the maintenance phase of therapy (at least 3 days after treatment initiation). Our institutional dosing protocol recommends a loading dose of 8–10 mg/kg administered three times approximately every 12 h within the first 48 h for patients with normal renal function, followed by a maintenance dose of 6 mg/kg once daily from Day 3. This loading regimen is intended to rapidly achieve therapeutic concentrations, allowing Cmin values measured during the maintenance phase to serve as a reliable surrogate for drug exposure. Teicoplanin doses were routinely proposed by a pharmacist using therapeutic drug monitoring (TDM) with a target Cmin for teicoplanin set at 15–30 mg/L in line with guideline recommendations,[22] though actual dosing was determined at the discretion of the attending physician.
as §1, with “to our study population. […] Based on the estimated CLtotal for each patient, the AUC24 was calculated as AUC24 (mg·h/L) = daily maintenance dose (mg)/CLtotal (L/h).[13],[24] Second, to account for the impact of hypoalbuminaemia, a patient-specific unbound fraction (fu) was estimated based on a validated model developed specifically for teicoplanin in a Japanese patient population by Yano et al.[25] The model predicts the fu using the patient’s ALB concentration with the following formula: […]” for “...”
where ALB is expressed in g/dL.
Finally, the free AUC24 (fAUC24) was estimated by multiplying the total AUC24 by fu. The resulting fAUC24/MICEtest ratio was used for all subsequent PK/PD analyses.
PK parameters for each patient were determined using the TDM software, BMs-Pod (ver 8.06, https://bmspod.web.fc2.com/).[26],[27]

[5] = tested on: glycopeptide-susceptible Enterococcus faecium (GSEF); test: Teicoplanin MIC by automated broth microdilution (MicroScan WalkAway-96 Plus); format: cell-based; conditions: all isolates; measurement range 2, 4, 8, 16 mg/L
Experimental: Blood culture specimens were processed using the BACTEC FX system (Becton Dickinson Microbiology Systems, Sparks, MD, USA). Species identification of bacterial isolates recovered from blood cultures was performed using the MALDI Biotyper 1.0 (Bruker Daltonics, Bremen, Germany). Antimicrobial susceptibilities to ampicillin and teicoplanin were tested using the MicroScan WalkAway system (Beckman Coulter Japan, Tokyo, Japan) and interpreted according to the Clinical and Laboratory Standards Institute (M100-S26) breakpoints.[21] Polymicrobial bacteraemia was defined as cases where one or more microorganisms, in addition to E. faecium, were isolated from the same blood culture and were not classified as contaminants according to the CDC criteria.[16]
For this study, teicoplanin MIC determinations were performed on archived isolates using a commercial automated broth microdilution method with the MicroScan WalkAway-96 Plus system (MICWalkAway) (Beckman Coulter) and gradient diffusion method (MICEtest) (Etest, bioMérieux) following the manufacturer’s instructions. […] In cases where disagreement occurred among all three operators, the MIC was retested and determined by the representative operator, taking the initial results into consideration.

[6] = cited from earlier work
Source text: The PK/PD parameter most commonly associated with the clinical efficacy of teicoplanin against MRSA is the ratio of the AUC to the MIC, referred to as AUC/MIC.[10],[11] The target AUC/MIC ratio for teicoplanin against MRSA is approximately 600–900, and achieving this target is known to improve therapeutic outcomes.[12],[13] Furthermore, teicoplanin is a highly protein-bound drug (approximately 90%), and it is the unbound (free) fraction that exerts antimicrobial activity. In critically ill patients, conditions such as hypoalbuminaemia can alter protein binding, potentially affecting the free d ...

[7] = tested on: glycopeptide-susceptible Enterococcus faecium (GSEF); test: Teicoplanin MIC by gradient diffusion method (Etest) on archived blood isolates; format: cell-based; conditions: for MICEtest: median (IQR), Etest
Experimental: For this study, teicoplanin MIC determinations were performed on archived isolates using a commercial automated broth microdilution method with the MicroScan WalkAway-96 Plus system (MICWalkAway) (Beckman Coulter) and gradient diffusion method (MICEtest) (Etest, bioMérieux) following the manufacturer’s instructions. Due to a change in the MIC measurement range during the study period, all isolates were remeasured using the MicroScan WalkAway-96 Plus system for consistency. The MICWalkAway measurement range was 2, 4, 8, and 16 mg/L. The MICEtest results were reviewed and confirmed independently by three clinical microbiologists who were blinded to the clinical outcomes of the patients from whom the isolates were obtained. In cases where disagreement occurred among all three operators, the MIC was retested and determined by the representative operator, taking the initial results into consideration.

Substance: teicoplanin
- inter-individual variability (CV%) for clearance (CL) [1]: 22.1%
- inter-individual variability (CV%) for volume of distribution (V) [1]: 26.7%
- residual variability [1]: 15.6%
- overall 30-day mortality rate (GSEF bacteraemia [2]; 6/76): 7.9%
- treatment failure, overall (GSEF bacteraemia [2]; 18 of 76 patients): 23.7%
- 30-day mortality (GSEF bacteraemia [2]; fAUC24/MICEtest < 462 (n = 49)): 6 (12.2) n (%)
- 90-day mortality (GSEF bacteraemia [2]; fAUC24/MICEtest < 462 (n = 49)): 17 (34.7) n (%)
- In-hospital mortality (GSEF bacteraemia [2]; fAUC24/MICEtest < 462 (n = 49)): 12 (24.5) n (%)
- Readmission within 90 days after bacteraemia (GSEF bacteraemia [2]; fAUC24/MICEtest < 462 (n = 49)): 22 (44.9) n (%)
- Relapse (GSEF bacteraemia [2]; fAUC24/MICEtest < 462 (n = 49)): 7 (14.3) n (%)
- Treatment failure (GSEF bacteraemia [2]; fAUC24/MICEtest < 462 (n = 49)): 17 (34.7) n (%)
- 30-day mortality (GSEF bacteraemia [2]; fAUC24/MICEtest ≥ 462 (n = 27)): 0 (0.0) n (%)
- 90-day mortality (GSEF bacteraemia [2]; fAUC24/MICEtest ≥ 462 (n = 27)): 3 (11.1) n (%)
- In-hospital mortality (GSEF bacteraemia [2]; fAUC24/MICEtest ≥ 462 (n = 27)): 2 (7.4) n (%)
- Readmission within 90 days after bacteraemia (GSEF bacteraemia [2]; fAUC24/MICEtest ≥ 462 (n = 27)): 8 (29.6) n (%)
- Relapse (GSEF bacteraemia [2]; fAUC24/MICEtest ≥ 462 (n = 27)): 3 (11.1) n (%)
- Treatment failure (GSEF bacteraemia [2]; fAUC24/MICEtest ≥ 462 (n = 27)): 1 (3.7) n (%)
- Odds ratio (95% CI) of treatment failure for fAUC24/MICEtest ≥ 462, multivariable (GSEF bacteraemia [2]; logistic regression adjusted for CCI, immunosuppressed state, Pitt bacteraemia score): 0.099 (0.005–0.562)
- Odds ratio (95% CI) of treatment failure for fAUC24/MICEtest ≥ 462, univariable (GSEF bacteraemia [2]; logistic regression, univariable): 0.072 (0.004–0.389)
- incidence of treatment failure (GSEF bacteraemia [2]; patients with fAUC24/MICEtest < 462): 34.7%
- incidence of treatment failure (GSEF bacteraemia [2]; patients with fAUC24/MICEtest ≥ 462): 3.7%
- effectiveness versus vancomycin (GSEF bacteraemia [3]; GSEF bacteraemia treatment): non-inferior to vancomycin
- incidence of acute kidney injury (AKI) versus vancomycin (GSEF bacteraemia [3]; in vivo): significantly lower incidence of acute kidney injury (AKI)
- treatment success ratio (GSEF bacteraemia [3]; patients with GSEF bacteraemia): 64.9%
- Cmin ([4]; human, in vivo): 18.3 (15.0–23.1) mg/L
- inter-individual variability (CV%) for clearance ([4]; human, in vivo): 39.2%
- inter-individual variability (CV%) for distribution rate parameter K12 ([4]; human, in vivo): 0.1%
- inter-individual variability (CV%) for distribution rate parameter α ([4]; human, in vivo): 4.7%
- inter-individual variability (CV%) for steady-state volume of distribution ([4]; human, in vivo): 43.8%
- median Cmin in both groups ([4]; human, in vivo): approximately 18 mg/L
- Cmin ([4]; total trough concentration, maintenance phase, treatment failure group (n = 18), median (IQR)): 18.4 (9.70–23.1) mg/L
- MICWalkAway [5]: ≤ 2 mg/L
- protein bound [6]: approximately 90%
- proportion of isolates with MIC ≤ 0.5 mg/L ([7]; isolates of the cohort): 84.2%
- MICEtest ([7]; treatment failure group (n = 18)): 0.50 (0.35–0.50) mg/L
- MICEtest ([7]; treatment success group (n = 58)): 0.25 (0.13–0.50) mg/L
